Among the data in PubChem BioAssay (NCI) are TGI and GI50 values, retold here.

Molecules are shown by their SMILES. Where “and” joins values, the source holds several entries; their conditions need not be identical. Equal values may be shown once.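 Following 48 hours of exposure in 96-well plates, responses at five concentrations were used to interpolate endpoints linearly. Abbreviation: GI50, concentration required for 50% inhibition of growth. At the TGI there is no net growth.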

Among the test systems are 786-0 renal; EKVX NSCLC; IGROV1 ovarian; MDA-MB-231 breast; MDA-MB-435; MOLT-4 leukemia; NCI-H522 lung; RPMI-8226 leukemia; SN12C renal; CCRF-CEM leukemia.
What all share (experiment): NCI-60 cell line screen, 48 h

On to `C(=NCCN1CCOCC1)=NC1CCCCC1`, for which the TGI in the experiment on 786-0 renal, in the experiment on EKVX NSCLC, in the experiment on IGROV1 ovarian, in the experiment on MDA-MB-231 breast, in the experiment on MDA-MB-435 and in the experiment on MOLT-4 leukemia was above 100000 nM throughout. The TGI in the experiment on NCI-H522 lung, with RPMI-8226 leukemia and in the experiment on SN12C renal was above 100000 nM each time.
As for `CC(=O)Nc1ccc(S(=O)(=O)N2C(=O)CCC2C(=O)Nc2ccc(Br)cc2)cc1` (stereo not given), the GI50 in the experiment with 786-0 renal was 2200 nM; with CCRF-CEM leukemia, 1490 nM; in the experiment on IGROV1 ovarian it was 2280 nM; in the experiment on MDA-MB-231 breast it was 1290 nM; in the experiment on MDA-MB-435, 2720 nM; with MOLT-4 leukemia, 2200 nM. In addition, the GI50 in the experiment with NCI-H522 lung is 1060 nM; in the experiment on RPMI-8226 leukemia, 806 nM; in the experiment on SN12C renal, 2790 nM. Moreover, the TGI with 786-0 renal came out at 7270 nM; with CCRF-CEM leukemia, 11000 nM; with IGROV1 ovarian, 10900 nM; in the experiment on MDA-MB-231 breast it was 6940 nM; with MDA-MB-435, 14300 nM; in the experiment with MOLT-4 leukemia it was 10300 nM. The values for the TGI in the experiment with NCI-H522 lung, with RPMI-8226 leukemia and with SN12C renal were 3600 nM, 4460 nM and 36000 nM, respectively.
Take `COC(=O)C[C@](O)(CCCC(C)(C)O)C(=O)O[C@@H]1C(OC)=C[C@]23CCCN2CCc2cc4c(cc2[C@H]13)OCO4`: the GI50 is 33 nM in the experiment with 786-0 renal; 28.2 nM in the experiment with CCRF-CEM leukemia; 48.6 nM with EKVX NSCLC; 28.4 nM in the experiment on IGROV1 ovarian; 87 nM in the experiment on MDA-MB-231 breast; 27.9 nM with MDA-MB-435. The GI50 was 48.2 nM and < 10 nM in the experiment with NCI-H522 lung; 28.8 nM in the experiment with RPMI-8226 leukemia; 40.5 nM in the experiment with SN12C renal. Also, the TGI is 688 nM and 472 nM in the experiment on EKVX NSCLC; 1400 nM and 795 nM in the experiment with IGROV1 ovarian; 186 nM and 28.8 nM in the experiment with NCI-H522 lung; 419 nM and 840 nM with RPMI-8226 leukemia; 666 nM and 526 nM with SN12C renal.
For the compound `Cc1cc(Nc2ccc(NC(=O)c3ccc(Nc4ccnc5ccccc45)cc3)cc2)nc(N)n1`, the GI50 with 786-0 renal was 3060 nM; in the experiment with EKVX NSCLC it was 2950 nM; in the experiment on IGROV1 ovarian, 15000 nM; in the experiment on MDA-MB-435 it was 2930 nM; in the experiment on RPMI-8226 leukemia, above 100000 nM; in the experiment with SN12C renal, 2130 nM. Also, the TGI in the experiment on 786-0 renal is above 100000 nM; with EKVX NSCLC, above 100000 nM; in the experiment with IGROV1 ovarian, 63500 nM; in the experiment on MDA-MB-435, above 100000 nM; with RPMI-8226 leukemia, above 100000 nM; in the experiment on SN12C renal, 5020 nM.
In the case of `CNCc1ccccc1-c1csc([C@@H](C)Nc2nc(C)nc3cc(OC)c(OC)cc23)c1`, the GI50 in the experiment with 786-0 renal is 1520 nM; in the experiment with CCRF-CEM leukemia, 2260 nM; in the experiment on EKVX NSCLC, 1610 nM; in the experiment on IGROV1 ovarian, 1400 nM; in the experiment with MDA-MB-231 breast, 1850 nM; in the experiment with MDA-MB-435, 1750 nM. Also, the results for the GI50 with NCI-H522 lung, with RPMI-8226 leukemia and in the experiment on SN12C renal were 1540 nM, 1770 nM and 1480 nM, respectively. In addition, the TGI was 2870 nM in the experiment on 786-0 renal; 5300 nM with CCRF-CEM leukemia; 12900 nM with EKVX NSCLC; 5230 nM in the experiment with IGROV1 ovarian; 3780 nM in the experiment on MDA-MB-231 breast; 3200 nM with MDA-MB-435. In addition, the figures for the TGI in the experiment with NCI-H522 lung, with RPMI-8226 leukemia and in the experiment on SN12C renal were 3640 nM, 4300 nM and 5020 nM, respectively.
`COc1cccc2c1C(=O)c1c(O)c3c(c(O)c1C2=O)C[C@@](O)(C(=O)CO)C[C@@H]3OC1CC(N)CC(C)O1` (stereo not given in full): the GI50 in the experiment on 786-0 renal was 20 nM; in the experiment with CCRF-CEM leukemia it was below 12.5 nM; in the experiment on EKVX NSCLC it was 152 nM; with IGROV1 ovarian, 50.4 nM and 43.6 nM; in the experiment with MDA-MB-231 breast, 232 nM; with MDA-MB-435 it was 131 nM and 32.7 nM. For the same compound, the GI50 is 33.9 nM in the experiment with NCI-H522 lung; 17.8 nM and 70.4 nM in the experiment with RPMI-8226 leukemia; 23.2 nM in the experiment on SN12C renal. For the same compound, the TGI is 514 nM and 568 nM in the experiment on 786-0 renal; 374 nM and 159 nM with CCRF-CEM leukemia; 839 nM and 610 nM in the experiment with EKVX NSCLC; 1250 nM and 1600 nM with IGROV1 ovarian; 675 nM and 780 nM in the experiment on MDA-MB-231 breast; 283 nM and 156 nM in the experiment with MDA-MB-435. The TGI in the experiment with NCI-H522 lung was 179 nM and 303 nM; with RPMI-8226 leukemia, 547 nM and 1720 nM; with SN12C renal, 1430 nM and 1070 nM.
Regarding `CCOC(=O)C1=CN(C)C=C(C(=O)OCC)C1c1cc(Br)c(OCC)c(OC)c1`, the GI50 with 786-0 renal is above 100000 nM; in the experiment with CCRF-CEM leukemia, above 100000 nM; in the experiment on IGROV1 ovarian it was above 100000 nM; in the experiment with MDA-MB-231 breast, 45400 nM; in the experiment with MDA-MB-435, above 100000 nM; in the experiment with MOLT-4 leukemia, above 100000 nM. The GI50 was above 100000 nM with NCI-H522 lung, 25800 nM in the experiment on RPMI-8226 leukemia and above 100000 nM in the experiment on SN12C renal. The TGI in the experiment on 786-0 renal, with CCRF-CEM leukemia, with IGROV1 ovarian, with MDA-MB-231 breast, in the experiment on MDA-MB-435 and in the experiment with MOLT-4 leukemia was above 100000 nM in each case. For the same compound, the TGI with NCI-H522 lung, in the experiment on RPMI-8226 leukemia and in the experiment on SN12C renal was above 100000 nM throughout.
`COc1ccc(/C=C\[N+](=O)[O-])cc1OC`: the GI50 was 1900 nM in the experiment on 786-0 renal; 3200 nM with CCRF-CEM leukemia; 15600 nM with EKVX NSCLC; 1820 nM in the experiment on IGROV1 ovarian; 3730 nM in the experiment with MDA-MB-231 breast; 2460 nM with MDA-MB-435. In addition, the figures for the GI50 in the experiment with MOLT-4 leukemia, in the experiment with RPMI-8226 leukemia and with SN12C renal were 4100 nM, 2060 nM and 3060 nM, respectively. In addition, the TGI in the experiment on 786-0 renal was 3870 nM; in the experiment on CCRF-CEM leukemia it was 22700 nM; in the experiment with EKVX NSCLC, 38100 nM; with IGROV1 ovarian, 4460 nM; in the experiment on MDA-MB-231 breast it was 13100 nM; in the experiment with MDA-MB-435, 9380 nM. Also, the results for the TGI in the experiment with MOLT-4 leukemia, in the experiment on RPMI-8226 leukemia and in the experiment with SN12C renal were 38000 nM, 5280 nM and 13200 nM, respectively.
As to `NC(=O)/C=C/C(=O)c1c(Cl)cccc1Cl`, the GI50 was 2140 nM in the experiment on 786-0 renal; 1390 nM in the experiment on IGROV1 ovarian; 1230 nM in the experiment with MDA-MB-231 breast; 1300 nM in the experiment on MDA-MB-435; 1180 nM with MOLT-4 leukemia; 204 nM in the experiment with NCI-H522 lung. Further, the GI50 was 264 nM in the experiment on RPMI-8226 leukemia and 1400 nM in the experiment with SN12C renal. Also, the TGI in the experiment on IGROV1 ovarian was found to be 2800 nM; in the experiment on MDA-MB-231 breast, 2470 nM; with MDA-MB-435 it was 3480 nM; in the experiment with MOLT-4 leukemia it was 5460 nM; in the experiment with NCI-H522 lung, 432 nM; with RPMI-8226 leukemia, 1140 nM. This compound also returned a TGI in the experiment on SN12C renal of 2690 nM.
